Test results: patent US20250186541A1, “DLL3 TARGETING PEPTIDES AND CONSTRUCTS THEREOF” (MARIANA ONCOLOGY INC., priority 2023, published 2025)
Bridge positions count the residues as written; N and C are the ends. Square brackets hold non-standard residues; d marks the D form. Peptide text beside a SMILES is read from it. * marks the point of attachment. DOTA = O=C(O)CN1CCN(CC(=O)O)CCN(CC(=O)*)CCN(CC(=O)O)CC1; 1Nal = N[C@@H](Cc1cccc2ccccc12)C(=O)O; 2Nal = N[C@@H](Cc1ccc2ccccc2c1)C(=O)O; Phe(2-F) = N[C@@H](Cc1ccccc1F)C(=O)O; NMeF = CN[C@@H](Cc1ccccc1)C(=O)O; αMeF = C[C@](N)(Cc1ccccc1)C(=O)O; Chg = N[C@H](C(=O)O)C1CCCCC1; αMeP = C[C@@]1(C(=O)O)CCCN1; dNle = CCCC[C@@H](N)C(=O)O; NMeC = CN[C@@H](CS)C(=O)O; dNMeA = CN[C@H](C)C(=O)O

target: T1, human DLL3 (Homo sapiens, UniProt Q9NYJ7); assay: Affinity determination by Surface Plasmon Resonance (SPR), Biacore, 1:1 binding model; conditions: biotinylated human DLL3 on streptavidin chip, 25° C.; NB = nonbinding
T1 construct: biotin (biotinylated)
T1 sequence (Q9NYJ7 27-618): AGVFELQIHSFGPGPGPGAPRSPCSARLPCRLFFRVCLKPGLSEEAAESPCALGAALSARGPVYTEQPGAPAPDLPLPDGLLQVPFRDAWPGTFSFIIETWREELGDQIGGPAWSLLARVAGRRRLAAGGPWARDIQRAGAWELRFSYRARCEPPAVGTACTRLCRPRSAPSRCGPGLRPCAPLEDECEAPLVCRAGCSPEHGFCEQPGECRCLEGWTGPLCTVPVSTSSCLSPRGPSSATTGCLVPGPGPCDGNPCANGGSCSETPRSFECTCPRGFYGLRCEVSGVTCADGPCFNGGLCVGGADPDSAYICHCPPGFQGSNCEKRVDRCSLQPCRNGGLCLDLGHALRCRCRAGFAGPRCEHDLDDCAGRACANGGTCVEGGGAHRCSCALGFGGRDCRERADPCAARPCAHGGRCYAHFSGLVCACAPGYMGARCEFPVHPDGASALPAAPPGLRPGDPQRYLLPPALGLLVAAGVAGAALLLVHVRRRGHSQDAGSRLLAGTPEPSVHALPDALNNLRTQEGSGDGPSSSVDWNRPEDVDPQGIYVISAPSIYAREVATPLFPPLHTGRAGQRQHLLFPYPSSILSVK
In short: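 SPR with biotinylated human DLL3 captured on a streptavidin chip, with a reference surface subtracted. Samples were injected at several concentrations at 100 μL/min in phosphate buffer with 137 mM NaCl, 2.7 mM KCl, 0.05% P20 and 2% DMSO. Kinetic and affinity constants came from a 1:1 binding fit.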

Row | SMILES | Kd
1 | CC(=O)N[C@H](C(=O)N[C@@H](CO)C(=O)N[C@@H](CC(=O)O)C(=O)N[C@H]1CSSC[C@@H](C(=O)N[C@@H](CCCCNC(=O)CN2CCN(CC(=O)O)CCN(CC(=O)O)CCN(CC(=O)O)CC2)C(=O)N[C@@H](Cc2ccccc2)C(=O)N[C@@H](CC(=O)O)C(N)=O)NC(=O)[C@H](CC(N)=O)NC(=O)[C@H](Cc2c[nH]c3ccccc23)NC(=O)[C@H](CCC(N)=O)NC(=O)[C@H](CC(C)C)NC(=O)[C@H](Cc2c[nH]c3ccccc23)NC1=O)C1CCCCC1 [compound 101, Ac-(Chg)-S-D-C(3)-W-L-Q-W-N-C(3)-[L-Lys(DOTA)]-F-D-CONH2] (Ac-[Chg]SDCWLQWNCK(DOTA)FD-NH2; disulfide 4-10) | > 300 nM
2 | CC(=O)N[C@H](C(=O)N[C@@H](CO)C(=O)N[C@@H](CC(=O)O)C(=O)N[C@H]1CSSC[C@@H](C(=O)N2CCC[C@H]2C(=O)N[C@@H](CCCCNC(=O)CN2CCN(CC(=O)O)CCN(CC(=O)O)CCN(CC(=O)O)CC2)C(=O)N[C@@H](CC(=O)O)C(N)=O)NC(=O)[C@H](CC(N)=O)NC(=O)[C@H](Cc2c[nH]c3ccccc23)NC(=O)[C@H](CCC(N)=O)NC(=O)[C@H](CC(C)C)NC(=O)[C@H](Cc2c[nH]c3ccccc23)NC1=O)C1CCCCC1 [compound 102, Ac-(Chg)-S-D-C(3)-W-L-Q-W-N-C(3)-P-[L-Lys(DOTA)]-D-CONH2] (Ac-[Chg]SDCWLQWNCPK(DOTA)D-NH2; disulfide 4-10) | > 100 nM
3 | CC(=O)N[C@H](C(=O)N[C@@H](CO)C(=O)N[C@@H](CC(=O)O)C(=O)N[C@H]1CSSC[C@@H](C(=O)N(C)[C@H](C)C(=O)N[C@@](C)(Cc2ccccc2)C(=O)N[C@@H](CC(=O)O)C(=O)N[C@H](CCCCNC(=O)CN2CCN(CC(=O)O)CCN(CC(=O)O)CCN(CC(=O)O)CC2)C(N)=O)NC(=O)[C@H](CC(N)=O)NC(=O)[C@H](Cc2c[nH]c3ccccc23)NC(=O)[C@H](CCC(N)=O)NC(=O)[C@H](CC(C)C)NC(=O)[C@H](Cc2cccc3ccccc23)NC1=O)C1CCCCC1 [compound 109, Ac-(Chg)-S-D-C(3)-(1Nal)-L-Q-W-N-C(3)-(NMeD-Ala)-(aMe-F)-D-D-Lys(DOTA)-CONH2] (Ac-[Chg]SDC[1Nal]LQWNC[dNMeA][αMeF]D[dK](DOTA)-NH2; disulfide 4-10) | 0.96 nM
4 | CC(=O)N[C@H](C(=O)N[C@@H](CO)C(=O)N[C@@H](CC(=O)O)C(=O)N[C@H]1CSSC[C@@H](C(=O)N(C)[C@H](C)C(=O)N(C)[C@@H](Cc2ccccc2)C(=O)N[C@@H](CC(=O)O)C(=O)N[C@H](CCCCNC(=O)CN2CCN(CC(=O)O)CCN(CC(=O)O)CCN(CC(=O)O)CC2)C(N)=O)NC(=O)[C@H](CC(N)=O)NC(=O)[C@H](Cc2c[nH]c3ccccc23)NC(=O)[C@H](CCC(N)=O)NC(=O)[C@H](CC(C)C)NC(=O)[C@H](Cc2cccc3ccccc23)NC1=O)C1CCCCC1 [compound 110, Ac-(Chg)-S-D-C(3)-(1Nal)-L-Q-W-N-C(3)-(NMeD-Ala)-(NMe-F)-D-D-Lys(DOTA)-CONH2] (Ac-[Chg]SDC[1Nal]LQWNC[dNMeA][NMeF]D[dK](DOTA)-NH2; disulfide 4-10) | > 30 nM
5 | CC(=O)N[C@H](C(=O)N[C@@H](CO)C(=O)N[C@@H](CC(=O)O)C(=O)N[C@H]1CSSC[C@@H](C(=O)N2CCC[C@H]2C(=O)N[C@@H](Cc2ccccc2)C(=O)N[C@@H](CC(=O)O)C(=O)N[C@H](CCCCNC(=O)CN2CCN(CC(=O)O)CCN(CC(=O)O)CCN(CC(=O)O)CC2)C(N)=O)N(C)C(=O)[C@H](CC(N)=O)NC(=O)[C@H](Cc2c[nH]c3ccccc23)NC(=O)[C@H](CCC(N)=O)NC(=O)[C@H](CC(C)C)NC(=O)[C@H](Cc2cccc3ccccc23)NC1=O)C1CCCCC1 [compound 115, Ac-(Chg)-S-D-C(3)-(1Nal)-L-Q-W-N-(NMe-Cys)-P-F-D-D-Lys(DOTA)-CONH2] (Ac-[Chg]SDC[1Nal]LQWN[NMeC]PFD[dK](DOTA)-NH2; disulfide 4-10) | > 100 nM
6 | CC(=O)N[C@H](C(=O)N[C@@H](CO)C(=O)N[C@@H](CC(=O)O)C(=O)N[C@H]1CSSC[C@@H](C(=O)N2CCC[C@@H]2C(=O)N[C@@H](Cc2ccccc2)C(=O)N[C@@H](CC(=O)O)C(=O)N[C@H](CCCCNC(=O)CN2CCN(CC(=O)O)CCN(CC(=O)O)CCN(CC(=O)O)CC2)C(N)=O)NC(=O)[C@H](CC(N)=O)NC(=O)[C@H](Cc2c[nH]c3ccccc23)NC(=O)[C@H](CCC(N)=O)NC(=O)[C@H](CC(C)C)NC(=O)[C@H](Cc2cccc3ccccc23)NC1=O)C1CCCCC1 [compound 116, Ac-(Chg)-S-D-C(3)-(1Nal)-L-Q-W-N-C(3)-(D-Pro)-F-D-D-Lys(DOTA)-CONH2] (Ac-[Chg]SDC[1Nal]LQWNC[dP]FD[dK](DOTA)-NH2; disulfide 4-10) | > 30 nM
7 | CC(=O)N[C@H](C(=O)N[C@@H](CO)C(=O)N[C@@H](CC(=O)O)C(=O)N[C@H]1CSSC[C@@H](C(=O)N2CCC[C@@]2(C)C(=O)N[C@@H](Cc2ccccc2F)C(=O)N[C@@H](CC(=O)O)C(=O)N[C@H](CCCCNC(=O)CN2CCN(CC(=O)O)CCN(CC(=O)O)CCN(CC(=O)O)CC2)C(N)=O)NC(=O)[C@H](CC(N)=O)NC(=O)[C@H](Cc2c[nH]c3ccccc23)NC(=O)[C@H](CCC(N)=O)NC(=O)[C@H](CC(C)C)NC(=O)[C@H](Cc2cccc3ccccc23)NC1=O)C1CCCCC1 [compound 117, Ac-(Chg)-S-D-C(3)-(1Nal)-L-Q-W-N-C(3)-(aMe-P)-(2F-Phe)-D-D-Lys(DOTA)-CONH2] (Ac-[Chg]SDC[1Nal]LQWNC[αMeP][Phe(2-F)]D[dK](DOTA)-NH2; disulfide 4-10) | 0.66 nM

Stronger by Kd, values ahead:

Row | Kd | SMILES
8 | 0.38 nM | CC(=O)N[C@H](C(=O)N[C@@H](CO)C(=O)N[C@@H](CC(=O)O)C(=O)N[C@H]1CSSC[C@@H](C(=O)N2CCC[C@H]2C(=O)N[C@@H](Cc2ccccc2)C(=O)N[C@@H](CC(=O)O)C(=O)N[C@H](CCCCNC(=O)CN2CCN(CC(=O)O)CCN(CC(=O)O)CCN(CC(=O)O)CC2)C(N)=O)NC(=O)[C@H](CC(N)=O)NC(=O)[C@H](Cc2ccc3ccccc3c2)NC(=O)[C@H](CCC(N)=O)NC(=O)[C@H](CC(C)C)NC(=O)[C@H](Cc2cccc3ccccc23)NC1=O)C1CCCCC1 [compound 114, Ac-(Chg)-S-D-C(3)-(1Nal)-L-Q-(2Nal)-N-C(3)-P-F-D-D-Lys(DOTA)-CONH2] (Ac-[Chg]SDC[1Nal]LQ[2Nal]NCPFD[dK](DOTA)-NH2; disulfide 4-10)
9 | 0.35 nM | CCCC[C@@H](NC(C)=O)C(=O)N[C@@H](CO)C(=O)N[C@@H](CC(=O)O)C(=O)N[C@H]1CSSC[C@@H](C(=O)N2CCC[C@H]2C(=O)N[C@@H](Cc2ccccc2)C(=O)N[C@@H](CC(=O)O)C(=O)N[C@H](CCCCNC(=O)CN2CCN(CC(=O)O)CCN(CC(=O)O)CCN(CC(=O)O)CC2)C(N)=O)NC(=O)[C@H](CC(N)=O)NC(=O)[C@H](Cc2c[nH]c3ccccc23)NC(=O)[C@H](CCC(N)=O)NC(=O)[C@H](CC(C)C)NC(=O)[C@H](Cc2cccc3ccccc23)NC1=O [compound 103, Ac-(D-Nle)-S-D-C(3)-(1Nal)-L-Q-W-N-C(3)-P-F-D-D-Lys(DOTA)-CONH2] (Ac-[dNle]SDC[1Nal]LQWNCPFD[dK](DOTA)-NH2; disulfide 4-10)
10 | 0.35 nM | CC(=O)N[C@H](C)C(=O)N[C@@H](CO)C(=O)N[C@@H](CC(=O)O)C(=O)N[C@H]1CSSC[C@@H](C(=O)N2CCC[C@H]2C(=O)N[C@@H](Cc2ccccc2)C(=O)N[C@@H](CC(=O)O)C(=O)N[C@H](CCCCNC(=O)CN2CCN(CC(=O)O)CCN(CC(=O)O)CCN(CC(=O)O)CC2)C(N)=O)NC(=O)[C@H](CC(N)=O)NC(=O)[C@H](Cc2c[nH]c3ccccc23)NC(=O)[C@H](CCC(N)=O)NC(=O)[C@H](CC(C)C)NC(=O)[C@H](Cc2cccc3ccccc23)NC1=O [compound 104, Ac-(D-Ala)-S-D-C(3)-(1Nal)-L-Q-W-N-C(3)-P-F-D-D-Lys(DOTA)-CONH2] (Ac-[dA]SDC[1Nal]LQWNCPFD[dK](DOTA)-NH2; disulfide 4-10)
